Residues, ends and D or L forms follow the SMILES beside them. No end group written: not given here. *: point of attachment. Cbz = O=C(OCc1ccccc1)*; CH2F = FC*
Assays:
[1] = tested on: HEK-293T cells; test: Annexin V-FITC flow cytometry-based apoptosis assay of transfected cells; type: cell-based
Experimental: (§1) The cultured HEK-293T cells (purchased from ATCC) were digested and counted with a hemocytometer, the resulting cells were diluted with a medium containing 10% fetal bovine serum (FBS) by volume, and added to a six-well plate, with 2×10^5 cells per well. The six-well plate was incubated in a 5% CO2 incubator at 37° C. until the cells grew to 50% to 70% confluence for transfection. […]
During the transfection, a mass-to-volume ratio (m:v) of the plasmid and the transfection reagent was 1:2, and 1 μg of the plasmid was added to each well of the six-well plate, and 2 μl of the transfection reagent was added correspondingly; the plasmid and transfection reagent were diluted with a serum-free medium in advance, shaken well, and allowed to stand at 25° C. for 5 min separately; the transfection reagent was pipetted to the serum-free medium containing the plasmid, flicked to mix well, and allowed to stand at 25° C. for 20 min to obtain a complex. […] Z-VAD-FMK (Selleck) was added to the six-well plate at a concentration of 20 μM 2 h before the transfection, nuclei were colored with a Hoechst 33342 dye, and condition of the cells after transfection was observed under a fluorescence microscope. […]

[2] = tested on: HEK-293T cells; test: Fluorescence microscopy of HEK-293T cells after transfection (Hoechst 33342 nuclear staining); type: cell-based; details: 1 μg plasmid per well, 4 h transfection then 12 h culture, Z-VAD-FMK 20 μM added 2 h before transfection
Experimental: as §1
During the transfection, a mass-to-volume ratio (m:v) of the plasmid and the transfection reagent was 1:2, and 1 μg of the plasmid was added to each well of the six-well plate, and 2 μl of the transfection reagent was added correspondingly; the plasmid and transfection reagent were diluted with a serum-free medium in advance, shaken well, and allowed to stand at 25° C. for 5 min separately; the transfection reagent was pipetted to the serum-free medium containing the plasmid, flicked to mix well, and allowed to stand at 25° C. for 20 min to obtain a complex. […] Z-VAD-FMK (Selleck) was added to the six-well plate at a concentration of 20 μM 2 h before the transfection, nuclei were colored with a Hoechst 33342 dye, and condition of the cells after transfection was observed under a fluorescence microscope.

Molecule | survival rate of cells (FIG. 4) ([1]; HEK-293T cells after transfection, in words) | condition of the cells after transfection observed under a fluorescence microscope [2] | effect on apoptosis ([1]; Bax-BH3 polypeptide expressed by the recombinant vector transfected into HEK-293T cells)
COC(=O)C[C@H](NC(=O)[C@H](C)NC(=O)[C@@H](NC(=O)OCc1ccccc1)C(C)C)C(=O)CF [Z-VAD-FMK] (Cbz-Val-Ala-Asp(OMe)-CH2F) | significantly improved | significantly inhibit apoptosis | 
DASTKKLSECLRRIGDELDS |  |  | promoting apoptosis

From patent US11963997B2, “Anti-tumor polypeptide Bax-BH3, fluorescent polymeric nanomicelle, preparation method and use thereof” (Jilin University, priority 2021, dated 2024)
